Patent US7691965B2, “Helical synthetic peptides that stimulate cellular cholesterol efflux” (The Regents of the University of California, priority 2002, dated 2010)
Where a SMILES comes first, the peptide text is derived from it.

Assays:
[1] = Relative lipid binding affinity by surface balance technique (monolayer exclusion pressure); format: physicochemical; conditions: for Monolayer exclusion pressure: surface balance technique
Excerpt: (§1) Relative Lipid Binding Affinity, Hydrophobicity, and Amphiphilicity of Synthetic Peptides—In some experiments, the relative lipid binding affinity of unique peptides was quantified using a surface balance technique (Gillotte, K L. et al., J. Biol. Chem., 274:2021-2028 (1999)). For routine analyses, a turbid solution of dimyristoylphosphatidylcholine (DMPC) was used to assess the relative capacity of synthetic peptides to solubilize phospholipid as described (Palgunachari, M. N. et al., Arterioscler. Thromb. Vasc. Biol., 16:328-338 (1996); McLean, L. R. and Hagaman, K. A., Biochim. Biophys. Acta, 1167:289-295 (1993)). The DMPC was used at a final concentration of 0.08 mg/ml in 10 mM Tris-saline (pH 7.4). The final weight ratio of peptides relative to DMPC was 1:1. The absorbance (400 nm) of samples was monitored continuously over a period of 30 min at 25° C. Hydrophobicity of helical peptides was calculated using the consensus scale (Eisenberg D., Annu. Rev. Biochem., 53:593-623 (1984)). The hydrophobic moment (kcal/mol) of synthetic peptides, which is a measure of helix amphiphilicity, was calculated as described by Eisenberg et al. (Eisenberg, D. et al., Nature, 299:371-374 (1982)).

ABCA1 [2] = molecular target: T1, ABCA1 (Mus musculus, UniProt P41233); assay: ABCA1 stabilization: immunoblot of ABCA1 protein in J774 macrophage membranes after cAMP withdrawal; format: cell-based; set-up: J774 macrophages were used to assess relative ABCA1 protein levels in the presence and absence of synthetic peptides; endogenous in cells; host or cells: J774 macrophages treated with a cAMP analog (CPT-cAMP or 8-bromo-cAMP); conditions: 20 μg/ml peptide, 6 h without cAMP, J774 macrophages
T1 sequence (P41233 whole entry): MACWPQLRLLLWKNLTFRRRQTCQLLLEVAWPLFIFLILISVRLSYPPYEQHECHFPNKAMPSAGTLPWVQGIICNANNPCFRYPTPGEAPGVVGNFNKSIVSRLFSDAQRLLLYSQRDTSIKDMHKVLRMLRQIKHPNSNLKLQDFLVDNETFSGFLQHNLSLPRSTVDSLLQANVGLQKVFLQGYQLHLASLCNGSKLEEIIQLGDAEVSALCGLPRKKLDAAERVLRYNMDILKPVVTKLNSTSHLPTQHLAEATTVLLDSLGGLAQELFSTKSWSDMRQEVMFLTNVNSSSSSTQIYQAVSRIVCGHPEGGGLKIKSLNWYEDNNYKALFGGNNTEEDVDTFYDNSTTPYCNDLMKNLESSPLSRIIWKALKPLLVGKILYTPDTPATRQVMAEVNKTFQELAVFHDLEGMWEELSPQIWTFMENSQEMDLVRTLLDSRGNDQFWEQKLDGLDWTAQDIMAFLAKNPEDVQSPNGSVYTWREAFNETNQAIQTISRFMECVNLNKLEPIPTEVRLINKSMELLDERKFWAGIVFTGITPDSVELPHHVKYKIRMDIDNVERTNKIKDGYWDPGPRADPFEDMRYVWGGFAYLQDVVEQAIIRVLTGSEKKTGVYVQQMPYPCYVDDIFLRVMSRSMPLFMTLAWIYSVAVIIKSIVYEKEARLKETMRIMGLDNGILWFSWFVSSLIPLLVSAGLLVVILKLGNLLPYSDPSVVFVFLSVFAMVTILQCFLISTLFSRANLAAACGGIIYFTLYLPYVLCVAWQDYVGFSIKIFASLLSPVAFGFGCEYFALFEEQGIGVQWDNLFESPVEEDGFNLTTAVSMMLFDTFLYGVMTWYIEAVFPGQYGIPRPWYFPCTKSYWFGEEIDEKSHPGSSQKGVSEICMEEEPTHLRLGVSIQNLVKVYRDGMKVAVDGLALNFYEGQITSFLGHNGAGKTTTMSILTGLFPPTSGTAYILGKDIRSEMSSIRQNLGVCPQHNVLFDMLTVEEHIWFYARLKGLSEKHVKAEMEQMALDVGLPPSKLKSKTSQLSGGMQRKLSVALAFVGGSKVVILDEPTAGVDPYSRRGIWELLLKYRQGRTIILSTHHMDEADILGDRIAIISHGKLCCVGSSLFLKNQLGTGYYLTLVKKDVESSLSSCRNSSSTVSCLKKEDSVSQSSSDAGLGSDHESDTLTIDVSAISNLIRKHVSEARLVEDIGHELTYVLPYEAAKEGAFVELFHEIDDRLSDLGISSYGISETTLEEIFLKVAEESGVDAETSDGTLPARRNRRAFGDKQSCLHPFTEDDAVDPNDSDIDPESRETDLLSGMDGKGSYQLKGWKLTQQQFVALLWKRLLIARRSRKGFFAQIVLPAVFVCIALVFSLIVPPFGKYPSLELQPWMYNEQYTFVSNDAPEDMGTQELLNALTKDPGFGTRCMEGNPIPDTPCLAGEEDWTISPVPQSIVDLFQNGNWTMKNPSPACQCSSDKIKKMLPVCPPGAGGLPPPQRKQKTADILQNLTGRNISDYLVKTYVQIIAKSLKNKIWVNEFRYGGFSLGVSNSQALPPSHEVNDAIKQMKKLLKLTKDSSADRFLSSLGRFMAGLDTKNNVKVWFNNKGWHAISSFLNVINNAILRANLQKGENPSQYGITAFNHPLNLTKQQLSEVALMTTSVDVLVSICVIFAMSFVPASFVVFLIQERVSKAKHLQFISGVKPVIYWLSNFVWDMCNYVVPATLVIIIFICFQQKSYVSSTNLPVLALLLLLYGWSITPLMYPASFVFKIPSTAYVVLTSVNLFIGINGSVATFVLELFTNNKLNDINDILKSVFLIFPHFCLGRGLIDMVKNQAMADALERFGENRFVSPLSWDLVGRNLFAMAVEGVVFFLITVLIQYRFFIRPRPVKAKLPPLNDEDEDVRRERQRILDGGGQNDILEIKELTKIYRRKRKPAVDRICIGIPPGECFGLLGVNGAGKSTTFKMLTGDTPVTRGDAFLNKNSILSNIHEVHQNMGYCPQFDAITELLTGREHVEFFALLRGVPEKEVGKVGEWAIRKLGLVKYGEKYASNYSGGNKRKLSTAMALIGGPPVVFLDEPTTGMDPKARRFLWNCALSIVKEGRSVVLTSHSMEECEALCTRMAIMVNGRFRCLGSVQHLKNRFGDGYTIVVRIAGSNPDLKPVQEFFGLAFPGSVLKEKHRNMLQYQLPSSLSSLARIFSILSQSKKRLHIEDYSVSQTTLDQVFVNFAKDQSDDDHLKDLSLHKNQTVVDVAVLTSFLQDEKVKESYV
Method: J774 macrophages were incubated (18 h) with 0.5 mM 8-bromo-cAMP in medium containing 0.1% bovine serum albumin to up-regulate ABCA1 protein expression. Washed cells were subsequently exposed for 6 h to bovine serum albumin medium with (+) or without (−) 8-bromo-cAMP and the indicated synthetic peptides (20 μg/ml). None refers to no peptides. The cellular membrane content of ABCA1 protein was measured by immunoblot analysis.
ABCA1 Stabilization—J774 macrophages were used to assess relative ABCA1 protein levels in the presence and absence of synthetic peptides. Cells were grown in 10% fetal bovine serum, extensively rinsed, and incubated (18 h) with Dulbecco's modified Eagle's medium containing 0.1% bovine serum albumin plus the cAMP analog 8-bromo-cAMP. Cells were next exposed to synthetic peptides or serum-free medium in the absence of the cAMP stimulus to evaluate whether ABCA1 protein was stabilized or degraded. Relative levels of ABCA1 protein were assessed by immunoblot analysis of cell membranes (Oram, J. F. et al., J. Biol. Chem., 278:52379-52385 (2003)). ABCA1 was visualized using an enhanced chemiluminescence detection assay.
To assess ABCA1 stabilization, J774 macrophages were treated with a cAMP analog to up-regulate ABCA1 protein expression and then incubated for 6 h without cAMP. In the absence of inducer, ABCA1 protein is rapidly degraded in these cells (FIG. 9). […] Thus, it appears that the helical combinations that stimulate cholesterol efflux also stabilize the ABCA1 transporter.

ABCA1 [3] = molecular target: T1, ABCA1; assay: Cellular cholesterol efflux from [3H]cholesterol-labeled J774 macrophages with and without cAMP analog; format: cell-based; set-up: endogenous in cells; host or cells: J774 macrophages treated with a cAMP analog (CPT-cAMP or 8-bromo-cAMP); conditions: for ABCA1-dependent cholesterol efflux (result in words): lipid-free acceptor, J774 macrophages with vs without cAMP analog
Excerpt: Suitable cholesterol efflux assays are described in, e.g., Bielicki, J. K and Oda, M. N., Biochemistry, 41:2089-2096 (2002); Jia, Z. et al., Biochem. Biophys. Res. Common., 297:206-213 (2002). In some embodiments, a polypeptide known to mediate cholesterol efflux (e.g., helix 9/10 of Apo A-I) is used to screen for additional mediators of cholesterol efflux in a cell based assay. For example, cell lines in which cholesterol efflux can be enhanced using a cAMP analog that up-regulates ABCA1 protein expression (e.g., J774 macrophages) can conveniently be used to assess the ability of an Apo A-I, Apo A-II, Apo A-IV, Apo E, Apo C-I, Apo C-II, Apo C-III, or Serum Amyloid A peptide to mediate cholesterol efflux. The cells are incubated with labeled cholesterol (e.g., [^3H]cholesterol) under conditions appropriate for cholesterol uptake by the cells. cAMP or cAMP analogs (e.g., CPT-cAMP) is incubated with the cells for a suitable time before the initiation of cellular cholesterol efflux, i.e., prior to contacting the cells with helix 9/10 of Apo A-I or the test compound. Measurement of labeled cholesterol appearing in the medium is used to determine the cholesterol efflux mediating activity of the test compound.
Cellular Cholesterol Efflux Protocol—J774 macrophages were used to assess the cholesterol efflux properties of synthetic amphipathic α-helical peptides (Bielicki, J. K and Oda, M. N., Biochemistry, 41:2089-2096 (2002); Jia, Z. et al., Biochem. Biophys. Res. Common., 297:206-213 (2002)). This cell line was chosen because cholesterol efflux can be enhanced using a cAMP analog that up-regulates ABCA1 protein expression. The cells were seeded onto 24-well culture plates and labeled for 48 h with [^3H]cholesterol in RPMI 1640 supplemented with 1% fetal bovine serum. The cAMP analog CPT-cAMP was added (0.3 mM, final concentration) to the cells at least 12 h before the initiation of cellular cholesterol efflux. Synthetic peptides in lipid-free form were added to cells in serum-free RPMI. The lipid-free form of full-length recombinant apoA-I was used as a positive control to define apparent ABCA1-dependent cholesterol efflux in the presence and absence of cAMP stimulation. Efflux results were expressed as a percentage of the initial cellular [^3H] appearing in the medium as a function of time subtracting the background efflux obtained using serum-free medium alone.

[4] = DMPC clearance assay (solubilization of a turbid phospholipid solution); format: physicochemical
Excerpt: as §1, with “Peptides-In” for “Peptides—In”, “[…].,” for “Hagaman, K. A.,”

ABCA1 [5] = molecular target: T1, ABCA1; assay: ABCA1 stabilization: immunoblot of ABCA1 protein in J774 macrophage membranes after cAMP withdrawal; format: cell-based; set-up: J774 macrophages were used to assess relative ABCA1 protein levels in the presence and absence of synthetic peptides; endogenous in cells; host or cells: J774 macrophages treated with a cAMP analog (CPT-cAMP or 8-bromo-cAMP); conditions: concentration dependence studies, J774 macrophages

Compound	lipid binding affinity (surface balance technique), result in words [1]	Monolayer exclusion pressure [1] [dynes/cm]	ABCA1 stabilization (result in words) (ABCA1 [2])	cholesterol efflux relative to that obtained with full-length apoA-I (ABCA1 [3]; 75 μg/ml, cAMP-treated macrophages) [%]	ABCA1-dependent cholesterol efflux (result in words) (ABCA1 [3])	DMPC clearance [4]	ABCA1 stabilization (result in words) (ABCA1 [2]; listed as Helix 10)	ABCA1-dependent cholesterol efflux (result in words) (ABCA1 [3]; listed as Helix 10)	ABCA1-dependent cholesterol efflux (result in words) (ABCA1 [3]; listed as helix 10)	concentration at which cholesterol efflux reached maximal levels (ABCA1 [3]; cAMP-treated J774 cells) [µg/mL]	lowest concentration that prevented ABCA1 degradation (ABCA1 [5]) [µg/mL]
CC(=O)N[C@@H](CC(C)C)C(=O)N[C@@H](CCCCN)C(=O)N[C@@H](CC(C)C)C(=O)N[C@@H](CC(C)C)C(=O)N[C@@H](CC(=O)O)C(=O)N[C@@H](CC(N)=O)C(=O)N[C@@H](Cc1c[nH]c2ccccc12)C(=O)N[C@@H](CC(=O)O)C(=O)N[C@@H](CO)C(=O)N[C@H](C(=O)N[C@H](C(=O)N[C@@H](CO)C(=O)N[C@H](C(=O)N[C@@H](Cc1ccccc1)C(=O)N[C@@H](CO)C(=O)N[C@@H](CCCCN)C(=O)N[C@@H](CC(C)C)C(=O)N[C@@H](CCCNC(=N)N)C(=O)N[C@@H](CCC(=O)O)C(=O)N[C@@H](CCC(N)=O)C(=O)N[C@@H](CC(C)C)C(=O)NCC(N)=O)[C@@H](C)O)[C@@H](C)O)C(C)C [Helical peptide 1] (Ac-LKLLDNWDSVTSTFSKLREQLG-NH2)	identical	30	failed to prevent ABCA1 degradation	15	failed to stimulate ABCA1-dependent cholesterol efflux	–	–	–	–	–	–
CC(=O)N1CCC[C@H]1C(=O)N[C@@H](C)C(=O)N[C@@H](CC(C)C)C(=O)N[C@@H](CCC(=O)O)C(=O)N[C@@H](CC(=O)O)C(=O)N[C@@H](CC(C)C)C(=O)N[C@@H](CCCNC(=N)N)C(=O)N[C@@H](CCC(N)=O)C(=O)NCC(=O)N[C@@H](CC(C)C)C(=O)N[C@@H](CC(C)C)C(=O)N[C@@H](CC(C)C)C(=O)N[C@@H](CCCCN)C(=O)N[C@@H](CC(C)C)C(=O)N[C@@H](CC(C)C)C(=O)N[C@@H](CC(=O)O)C(=O)N[C@@H](CC(N)=O)C(=O)N[C@@H](Cc1c[nH]c2ccccc12)C(=O)N[C@@H](CC(=O)O)C(=O)N[C@@H](CO)C(=O)N[C@H](C(=O)N[C@H](C(=O)N[C@@H](CO)C(=O)N[C@H](C(=O)N[C@@H](Cc1ccccc1)C(=O)N[C@@H](CO)C(=O)N[C@@H](CCCCN)C(=O)N[C@@H](CC(C)C)C(=O)N[C@@H](CCCNC(=N)N)C(=O)N[C@@H](CCC(=O)O)C(=O)N[C@@H](CCC(N)=O)C(=O)N[C@@H](CC(C)C)C(=O)NCC(N)=O)[C@@H](C)O)[C@@H](C)O)C(C)C [Helical peptide 9/1] (Ac-PALEDLRQGLLLKLLDNWDSVTSTFSKLREQLG-NH2)	–	–	retained ABCA1 stabilization activity	–	stimulated cholesterol efflux in an ABCA1-dependent manner	+	–	–	–	–	–
CC(=O)N1CCC[C@H]1C(=O)N[C@H](C(=O)N[C@@H](CC(C)C)C(=O)N[C@@H](CCC(=O)O)C(=O)N[C@@H](CO)C(=O)N[C@@H](Cc1ccccc1)C(=O)N[C@@H](CCCCN)C(=O)N[C@H](C(=O)N[C@@H](CO)C(=O)N[C@@H](Cc1ccccc1)C(=O)N[C@@H](CC(C)C)C(=O)N[C@@H](CO)C(=O)N[C@@H](C)C(=O)N[C@@H](CC(C)C)C(=O)N[C@@H](CCC(=O)O)C(=O)N[C@@H](CCC(=O)O)C(=O)N[C@@H](Cc1ccc(O)cc1)C(=O)N[C@H](C(=O)N[C@@H](CCCCN)C(=O)N[C@@H](CCCCN)C(=O)N[C@@H](CC(C)C)C(=O)N[C@@H](CC(N)=O)C(N)=O)[C@@H](C)O)C(C)C)C(C)C [Helical peptide 10] (Ac-PVLESFKVSFLSALEEYTKKLN-NH2)	–	28	failed to prevent ABCA1 degradation	–	–	–	nor does it stabilize ABCA1	does not mediate ABCA1-dependent cholesterol efflux	poor mediator of cellular cholesterol efflux	–	–
full-length apoA-I: full-length recombinant His-tagged apolipoprotein A-I from a bacterial expression system, positive control [reference compound]	identical	–	–	–	increased dramatically upon the up-regulation of the ABCA1 transporter	–	–	–	–	10	~10
